# Reference: PMC11012124, “Synthesis of Novel Triazine-Based Chalcones and 8,9-dihydro-7H-pyrimido[4,5-b][1,4]diazepines as Potential Leads in the Search of Anticancer, Antibacterial and Antifungal Agents” (International Journal of Molecular Sciences, 2024)
# Where two headings read alike, the source gives them in different places.
# Key:
# NCI/ADR-RES = experiment: cells; details: Homo sapiens, 48 h; for CC50: read-out: LC50
# RPMI-8226 = experiment: cells; details: Homo sapiens, RPMI-8226, 48 h; for CC50: read-out: LC50
# SR = experiment: cells; details: Homo sapiens, 48 h
# UACC-257 = experiment: cells; details: Homo sapiens, UACC-257, 48 h; for CC50: read-out: LC50
# MDA-MB-435 = experiment: cells; details: Homo sapiens, MDA-MB-435, 48 h; for CC50: read-out: LC50
# HS 578T = experiment: cells; details: Homo sapiens, 48 h; for CC50: read-out: LC50
# M14 = experiment: cells; details: Homo sapiens, M14, 48 h; for CC50: read-out: LC50
# SNB-75 = experiment: cells; details: Homo sapiens, SNB-75, 48 h; for CC50: read-out: LC50
# [1] = system: M. tuberculosis ATCC 27294; experiment: Antitubercular broth microdilution MIC; type: cell-based; details: Mycobacterium tuberculosis; M. tuberculosis ATCC 27294 (H37Rv); read-out: Minimum inhibitory concentration (MIC)
# NCI-H522 = experiment: cells; details: Homo sapiens, NCI-H522, 48 h; for CC50: read-out: LC50
# TK-10 = experiment: cells; details: Homo sapiens, TK-10, 48 h; for CC50: read-out: LC50
# SN12C = experiment: cells; details: Homo sapiens, 48 h; for CC50: read-out: LC50
# SNB-19 = experiment: cells; details: Homo sapiens, SNB-19, 48 h; for CC50: read-out: LC50
# NCI-H226 = experiment: cells; details: Homo sapiens, NCI-H226, 48 h; for CC50: read-out: LC50
# MDA-MB-468 = experiment: cells; details: Homo sapiens, MDA-MB-468, 48 h; for CC50: read-out: LC50
# HL-60(TB) = experiment: cells; details: Homo sapiens, HL-60, 48 h; for CC50: read-out: LC50
# MCF7 = experiment: cells; details: Homo sapiens, MCF7, 48 h; for CC50: read-out: LC50
# SF-539 = experiment: cells; details: Homo sapiens, SF-539, 48 h; for CC50: read-out: LC50, SF-539, 48 h
# OVCAR-4 = experiment: cells; details: Homo sapiens, OVCAR-4, 48 h; for CC50: read-out: LC50
# 60 cancer cell lines = experiment: NCI-60 one-dose screen (10 μM); type: cell-based; details: Homo sapiens; one dose of 10 μM, mean over 60 cancer cell lines; read-out: Mean Growth Percent (MGP)
# From the text: Additionally, the mean of the growth percentages (MGP) of each compound against all the 60 cancer cell lines is also reported, which is used as one of the selection criteria to continue with tests at five concentration doses.
# OVCAR-8 = experiment: cells; details: Homo sapiens, OVCAR-8, 48 h; for CC50: read-out: LC50
# NCI-H322M = experiment: cells; details: Homo sapiens, 48 h; for CC50: read-out: LC50
# UACC-62 = experiment: cells; details: Homo sapiens, UACC-62, 48 h; for CC50: read-out: LC50
# BT-549 = experiment: cells; details: Homo sapiens, BT-549, 48 h; for CC50: read-out: LC50
# DU-145 = experiment: cells; details: Homo sapiens, DU-145, 48 h; for CC50: read-out: LC50
# [2] = system: N. gonorrhoeae ATCC 49226; experiment: MIC on GC agar plates; type: cell-based, Neisseria gonorrhoeae
# Summary of the method: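 Agar dilution was used: GC agar with 1% IsoVitaleX containing increasing compound concentrations was inoculated with 1 × 10^4 CFU. The MIC was taken as the lowest concentration inhibiting growth, with growth confirmed by oxidase test, in duplicate across at least two independent experiments.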
structure (smiles),measurement,setting,value
COc1cc(/C=C/C(=O)c2ccc(S(=O)(=O)NCCNc3nc(Nc4ccc(F)cc4)nc(N(C)C)n3)cc2)cc(OC)c1OC [24d],GI50,NCI/ADR-RES,3.38 µM
same,CC50,NCI/ADR-RES,56.3 µM
same,GI50,RPMI-8226,2.5 µM
same,CC50,RPMI-8226,> 100 µM
same,GI50,SR,2.42 µM
same,CC50,SR; read-out: LC50,> 100 µM
same,GI50,UACC-257,15.1 µM
same,CC50,UACC-257,65.1 µM
same,GI50,MDA-MB-435,2.8 µM
same,CC50,MDA-MB-435,93.9 µM
same,GI50,HS 578T,8.24 µM
same,CC50,HS 578T,> 100 µM
same,GI50,M14,3.28 µM
same,CC50,M14,47.4 µM
same,CC50,SNB-75,91.9 µM
same,MIC,[1],50 µg/mL
same,GI50,NCI-H522,6.45 µM
same,CC50,NCI-H522,50 µM
same,GI50,TK-10,13.1 µM
same,CC50,TK-10,> 100 µM
same,GI50,SN12C,5.71 µM
same,CC50,SN12C,63.6 µM
same,GI50,SNB-19,11.2 µM
same,CC50,SNB-19,48.7 µM
same,GI50,NCI-H226,4.47 µM
same,CC50,NCI-H226,> 100 µM
same,GI50,MDA-MB-468,2 µM
same,CC50,MDA-MB-468,11.5 µM
same,GI50,HL-60(TB),2.64 µM
same,CC50,HL-60(TB),> 100 µM
same,GI50,MCF7,1.96 µM
same,CC50,MCF7,9.34 µM
same,GI50,SF-539,1.71 µM
same,CC50,SF-539,5.93 µM
same,GI50,OVCAR-4,8.02 µM
same,CC50,OVCAR-4,> 100 µM
same,activity at 10 µM,60 cancer cell lines,-0.31%
same,GI50,OVCAR-8,11.1 µM
same,CC50,OVCAR-8,> 100 µM
same,GI50,NCI-H322M,10.1 µM
same,CC50,NCI-H322M,> 100 µM
same,GI50,UACC-62,8.28 µM
same,CC50,UACC-62,48.8 µM
same,GI50,BT-549,2.25 µM
same,CC50,BT-549,31.2 µM
same,GI50,DU-145,10.9 µM
same,CC50,DU-145,> 100 µM
CN(C)c1nc(NCCNS(=O)(=O)c2ccc(C(=O)/C=C/c3ccc(C(F)(F)F)cc3)cc2)nc(Nc2ccc(F)cc2)n1 [24g],GI50,NCI/ADR-RES,10.7 µM
same,CC50,NCI/ADR-RES,23.7 µM
same,GI50,RPMI-8226,3 µM
same,CC50,RPMI-8226,> 100 µM
same,GI50,UACC-257,11 µM
same,CC50,UACC-257,25 µM
same,GI50,MDA-MB-435,2.86 µM
same,CC50,MDA-MB-435,8.49 µM
same,GI50,HS 578T,12.7 µM
same,CC50,HS 578T,49.5 µM
same,GI50,M14,3.39 µM
same,CC50,M14,12.9 µM
same,GI50,SNB-75,8.41 µM
same,CC50,SNB-75,22.7 µM
same,MIC,[1],50 µg/mL
same,GI50,NCI-H522,11.2 µM
same,CC50,NCI-H522,24.7 µM
same,GI50,TK-10,17.4 µM
same,CC50,TK-10,32 µM
same,GI50,SN12C,6.36 µM
same,CC50,SN12C,19.9 µM
same,GI50,SNB-19,12 µM
same,CC50,SNB-19,24.3 µM
same,GI50,NCI-H226,7.82 µM
same,CC50,NCI-H226,24.7 µM
same,GI50,MDA-MB-468,4.53 µM
same,CC50,MDA-MB-468,17 µM
same,GI50,HL-60(TB),3.81 µM
same,CC50,HL-60(TB),30 µM
same,GI50,MCF7,1.7 µM
same,CC50,MCF7,3.56 µM
same,GI50,SF-539,10.7 µM
same,CC50,SF-539,22.5 µM
same,GI50,OVCAR-4,8.78 µM
same,CC50,OVCAR-4,23.1 µM
same,activity at 10 µM,60 cancer cell lines,-27.2%
same,GI50,OVCAR-8,12.3 µM
same,CC50,OVCAR-8,30.6 µM
same,GI50,NCI-H322M,11.6 µM
same,CC50,NCI-H322M,24.3 µM
same,GI50,UACC-62,6.24 µM
same,CC50,UACC-62,19.4 µM
same,GI50,BT-549,12.7 µM
same,CC50,BT-549,25.6 µM
same,GI50,DU-145,11.2 µM
same,CC50,DU-145,24 µM
CN(C)c1nc(NCCNS(=O)(=O)c2ccc(C3=Nc4c(N)nc(N)nc4NC(c4ccc(F)cc4)C3)cc2)nc(Nc2ccc(F)cc2)n1 (centres unmarked) [31f],GI50,NCI/ADR-RES,> 100 µM
same,CC50,NCI/ADR-RES,> 100 µM
same,GI50,RPMI-8226,5.25 µM
same,CC50,RPMI-8226,> 100 µM
same,GI50,UACC-257,11.4 µM
same,CC50,UACC-257,> 100 µM
same,GI50,MDA-MB-435,5.93 µM
same,CC50,MDA-MB-435,> 100 µM
same,GI50,HS 578T,5.7 µM
same,CC50,HS 578T,> 100 µM
same,GI50,M14,3.84 µM
same,CC50,M14,25.3 µM
same,GI50,SNB-75,2.53 µM
same,CC50,SNB-75,74 µM
same,MIC,[1],1.2 µg/mL
same,GI50,NCI-H522,34.8 µM
same,CC50,NCI-H522,> 100 µM
same,GI50,TK-10,> 100 µM
same,CC50,TK-10,> 100 µM
same,GI50,NCI-H226,> 100 µM
same,CC50,NCI-H226,> 100 µM
same,GI50,MDA-MB-468,2.15 µM
same,CC50,MDA-MB-468,6.24 µM
same,GI50,HL-60(TB),3.12 µM
same,CC50,HL-60(TB),> 100 µM
same,GI50,MCF7,3.16 µM
same,CC50,MCF7,43.7 µM
same,GI50,SF-539,3.89 µM
same,CC50,SF-539,> 100 µM
same,CC50,OVCAR-4,> 100 µM
same,activity at 10 µM,60 cancer cell lines,37.1%
same,GI50,OVCAR-8,12 µM
same,CC50,OVCAR-8,> 100 µM
same,MIC,[2],0.25 µg/mL
same,MIC,"[2]; Neisseria gonorrhoeae, ATCC49226, read-out: MIC",0.25 µg/mL
same,GI50,NCI-H322M,> 100 µM
same,CC50,NCI-H322M,> 100 µM
same,GI50,BT-549,3.26 µM
same,CC50,BT-549,18.2 µM
same,GI50,DU-145,52 µM
same,CC50,DU-145,> 100 µM
